Experimental findings from ChEMBL document CHEMBL1149946, “The conformation of cyclosporin a bound to cyclophilin is altered (once again) following binding to calcineurin: an analysis of receptor-ligand-receptor interactions” (Bioorg Med Chem Lett, 1992) are described below.

The experiment is described as follows: Compound was evaluated for its binding affinity towards cyclophilin (Cyp).

For the compound `C/C=C/CC(C)(C)[C@@H](O)[C@H]1C(=O)N[C@@H](CC)C(=O)N(C)CC(=O)N(C)[C@@H](CC(C)C)C(=O)N[C@@H](C(C)C)C(=O)N(C)[C@@H](CC(C)C)C(=O)N[C@@H](C)C(=O)N[C@@H](C)C(=O)N(C)[C@@H](CC(C)C)C(=O)N(C)[C@@H](CC(C)C)C(=O)N(C)[C@@H](C(C)C)C(=O)N1C`, binding was put at a Kd of 500 nM.
Under `C/C=C/C[C@@H](C)[C@H](O)[C@H]1C(=O)N[C@@H](CC)C(=O)N(C)CC(=O)N(C)[C@@H](CC(C)C)C(=O)N[C@H](C(C)C)C(=O)N(C)CC(=O)N[C@@H](C)C(=O)N[C@H](C)C(=O)N(C)[C@H](CC(C)C)C(=O)N(C)[C@H](CC(C)C)C(=O)N(C)[C@H](C(C)C)C(=O)N1C` stands 13 nM.
